Measurements published in PubChem BioAssay (NCI).
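These data come from cells grown in 96-well plates and exposed to compound for 48 hours at five concentrations. At the GI50, growth is halved. TGI marks complete inhibition of growth.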

How the values were obtained:
Assay in all cases: growth of human tumour cells (NCI), 48 h
[1] = tested on: 786-0 renal
[2] = tested on: A498 renal
[3] = tested on: A549 NSCLC
[4] = tested on: ACHN renal
[5] = tested on: BT-549 breast
[6] = tested on: CAKI-1 renal
[7] = tested on: CCRF-CEM leukemia
[8] = tested on: COLO 205 colon
[9] = tested on: DU-145 prostate
[10] = tested on: EKVX NSCLC
[11] = tested on: HCC-2998 colon
[12] = tested on: HCT-116 colon
[13] = tested on: HCT-15 colon
[14] = tested on: HL-60(TB) leukemia
[15] = tested on: HOP-62 NSCLC
[16] = tested on: HOP-92 NSCLC
[17] = tested on: HS 578T breast
[18] = tested on: HT29 colon
[19] = tested on: IGROV1 ovarian
[20] = tested on: K-562 leukemia
[21] = tested on: KM12 colon
[22] = tested on: LOX IMVI melanoma
[23] = tested on: M14 melanoma
[24] = tested on: MALME-3M melanoma
[25] = tested on: MCF7 breast
[26] = tested on: MDA-MB-231 breast
[27] = tested on: MDA-MB-435
[28] = tested on: MOLT-4 leukemia
[29] = tested on: NCI-H226 lung
[30] = tested on: NCI-H23 lung
[31] = tested on: NCI-H460 lung
[32] = tested on: NCI-H522 lung
[33] = tested on: NCI/ADR-RES ovarian
[34] = tested on: OVCAR-3 ovarian
[35] = tested on: OVCAR-4 ovarian
[36] = tested on: OVCAR-5 ovarian
[37] = tested on: OVCAR-8 ovarian
[38] = tested on: PC-3 prostate
[39] = tested on: RPMI-8226 leukemia
[40] = tested on: RXF 393 renal
[41] = tested on: SF-268 CNS
[42] = tested on: SF-295 CNS
[43] = tested on: SF-539 CNS
[44] = tested on: SK-MEL-2 melanoma
[45] = tested on: SK-MEL-28 melanoma
[46] = tested on: SK-MEL-5 melanoma
[47] = tested on: SK-OV-3 ovarian
[48] = tested on: SN12C renal
[49] = tested on: SNB-19 CNS
[50] = tested on: SNB-75 CNS
[51] = tested on: SR leukemia
[52] = tested on: SW-620 colon
[53] = tested on: T-47D breast
[54] = tested on: TK-10 renal
[55] = tested on: U251 CNS
[56] = tested on: UACC-257 melanoma
[57] = tested on: UACC-62 melanoma
[58] = tested on: UO-31 renal

Cc1cc2nc3c4cc(C=O)ccc4n(CCN(C)C)c3nc2cc1C
GI50 [1]: 1.43 µM
TGI [1]: 9.96 µM
GI50 [2]: 0.5 µM
TGI [2]: 2.09 µM
GI50 [3]: 0.851 µM
TGI [3]: 10.4 µM
GI50 [4]: 0.426 µM
TGI [4]: 4.56 µM
GI50 [5]: 2.15 µM
TGI [5]: 5.35 µM
GI50 [6]: 1.7 µM
TGI [6]: 9.69 µM
GI50 [7]: 1.14 µM
TGI [7]: 7.77 µM
GI50 [8]: 0.574 µM
TGI [8]: 2.1 µM
GI50 [9]: 3.03 µM
TGI [9]: 10.6 µM
GI50 [10]: 2.04 µM
TGI [10]: 6.27 µM
GI50 [11]: 1.33 µM
TGI [11]: 3.14 µM
GI50 [12]: 0.484 µM
TGI [12]: 9.1 µM
GI50 [13]: 1.36 µM
TGI [13]: 7.24 µM
GI50 [14]: 1.35 µM
TGI [14]: 5.84 µM
GI50 [15]: 1.54 µM
TGI [15]: 10.1 µM
GI50 [16]: 1.49 µM
TGI [16]: 7.35 µM
GI50 [17]: 2.25 µM
TGI [17]: 6.7 µM
GI50 [18]: 0.656 µM
TGI [18]: 3.74 µM
GI50 [19]: 1.52 µM
TGI [19]: 6.39 µM
GI50 [20]: 0.82 µM
TGI [20]: 18.6 µM
GI50 [21]: 2.12 µM
TGI [21]: 10 µM
GI50 [22]: 0.532 µM
TGI [22]: 2.5 µM
GI50 [23]: 1.3 µM
TGI [23]: 2.95 µM
GI50 [24]: 1.29 µM
TGI [24]: 2.76 µM
GI50 [25]: 1.82 µM
TGI [25]: 5.99 µM
GI50 [26]: 1.83 µM
TGI [26]: 6.99 µM
GI50 [27]: 1.66 µM
TGI [27]: 3.07 µM
GI50 [28]: 0.389 µM
TGI [28]: 10.3 µM
GI50 [29]: 2.07 µM
TGI [29]: 7.32 µM
GI50 [30]: 1.49 µM
TGI [30]: 4.45 µM
GI50 [31]: 1.19 µM
TGI [31]: 10.1 µM
GI50 [32]: 1.87 µM
TGI [32]: 4.91 µM
GI50 [33]: 0.607 µM
TGI [33]: 6.97 µM
GI50 [34]: 1.97 µM
TGI [34]: 6.58 µM
GI50 [35]: 2.12 µM
TGI [35]: 7.75 µM
GI50 [36]: 2.17 µM
TGI [36]: 7.23 µM
GI50 [37]: 0.777 µM
TGI [37]: 10.9 µM
GI50 [38]: 1.62 µM
TGI [38]: 5.71 µM
GI50 [39]: 1.91 µM
TGI [39]: 5.16 µM
GI50 [40]: 1.06 µM
TGI [40]: 2.74 µM
GI50 [41]: 2.05 µM
TGI [41]: 6.63 µM
GI50 [42]: 0.696 µM
TGI [42]: 5.69 µM
GI50 [43]: 1.51 µM
TGI [43]: 3.87 µM
GI50 [44]: 1.76 µM
TGI [44]: 3.65 µM
GI50 [45]: 1.78 µM
TGI [45]: 3.65 µM
GI50 [46]: 1.69 µM
TGI [46]: 3.33 µM
GI50 [47]: 2.35 µM
TGI [47]: 10.9 µM
GI50 [48]: 1.03 µM
TGI [48]: 8.04 µM
GI50 [49]: 1.65 µM
TGI [49]: 9.09 µM
GI50 [50]: 1.98 µM
TGI [50]: 5 µM
GI50 [51]: 0.435 µM
TGI [51]: 11.1 µM
GI50 [52]: 0.479 µM
TGI [52]: 4.31 µM
GI50 [53]: 2.14 µM
TGI [53]: 7.04 µM
GI50 [54]: 1.97 µM
TGI [54]: 6.59 µM
GI50 [55]: 1.65 µM
TGI [55]: 10.1 µM
GI50 [56]: 1.96 µM
TGI [56]: 4.8 µM
GI50 [57]: 1.75 µM
TGI [57]: 3.7 µM
GI50 [58]: 0.846 µM
TGI [58]: 8.78 µM

C=CCSSC1N=CNc2nc[nH]c21 (configuration not stated)
GI50 [1]: 1.75 µM
TGI [1]: > 36.3 µM
GI50 [2]: 67.2 µM
TGI [2]: > 100 µM
GI50 [3]: 30.5 µM
TGI [3]: > 100 µM
GI50 [4]: 5.62 µM
TGI [4]: > 46.3 µM
GI50 [5]: 8.78 µM
TGI [5]: > 76.4 µM
GI50 [6]: 1.97 µM
TGI [6]: 34.5 µM
GI50 [7]: 0.871 µM
TGI [7]: > 28.1 µM
GI50 [8]: 3.52 µM
TGI [8]: 14.7 µM
GI50 [9]: 0.837 µM
TGI [9]: > 47.5 µM
GI50 [10]: 49.4 µM
TGI [10]: > 100 µM
GI50 [11]: 2.82 µM
TGI [11]: 23.8 µM
GI50 [12]: 2.77 µM
TGI [12]: 15.8 µM
GI50 [13]: 4.71 µM
TGI [13]: 24.5 µM
GI50 [14]: 2.4 µM
TGI [14]: > 26.2 µM
GI50 [15]: 1.54 µM
TGI [15]: > 70.4 µM
GI50 [16]: 0.376 µM
TGI [16]: 17 µM
GI50 [17]: 12.8 µM
TGI [17]: > 100 µM
GI50 [18]: 5.88 µM
TGI [18]: 36.5 µM
GI50 [19]: 2.12 µM
TGI [19]: 11.2 µM
GI50 [20]: 0.343 µM
TGI [20]: > 26 µM
GI50 [21]: 4.42 µM
TGI [21]: > 43.6 µM
GI50 [22]: 0.374 µM
TGI [22]: 14.6 µM
GI50 [23]: 0.461 µM
TGI [23]: 18.6 µM
GI50 [24]: 3.61 µM
TGI [24]: > 42.2 µM
GI50 [25]: 1.02 µM
TGI [25]: 16.1 µM
GI50 [26]: 4.84 µM
TGI [26]: 36.2 µM
GI50 [27]: 2.15 µM
TGI [27]: 39.9 µM
GI50 [28]: 2.15 µM
TGI [28]: > 24.1 µM
GI50 [29]: 12.2 µM
TGI [29]: > 100 µM
GI50 [30]: 8.09 µM
TGI [30]: 42.8 µM
GI50 [31]: 8.16 µM
TGI [31]: > 100 µM
GI50 [32]: 4.34 µM
TGI [32]: 48.3 µM
GI50 [33]: 4.46 µM
TGI [33]: > 80.6 µM
GI50 [34]: 0.944 µM
TGI [34]: 14.2 µM
GI50 [35]: 0.446 µM
TGI [35]: 5.43 µM
GI50 [36]: 7.53 µM
TGI [36]: > 50.6 µM
GI50 [37]: 4 µM
TGI [37]: 23.3 µM
GI50 [38]: 5.56 µM
TGI [38]: 28.7 µM
GI50 [39]: 1.44 µM
TGI [39]: 6.26 µM
GI50 [40]: 4.73 µM
TGI [40]: 21.5 µM
GI50 [41]: 5.66 µM
TGI [41]: > 46.9 µM
GI50 [42]: 2.61 µM
TGI [42]: > 100 µM
GI50 [43]: 2.6 µM
TGI [43]: 32.4 µM
GI50 [44]: 6.11 µM
TGI [44]: 19.2 µM
GI50 [45]: 27.2 µM
TGI [45]: > 70.2 µM
GI50 [46]: 5.31 µM
TGI [46]: 39.5 µM
GI50 [47]: 0.562 µM
TGI [47]: > 88.6 µM
GI50 [48]: 10.4 µM
TGI [48]: > 67.4 µM
GI50 [49]: > 71.6 µM
TGI [49]: > 100 µM
GI50 [50]: 3.18 µM
TGI [50]: > 90.9 µM
GI50 [51]: 1.28 µM
TGI [51]: > 100 µM
GI50 [52]: 3.71 µM
TGI [52]: 14.9 µM
GI50 [53]: 1.39 µM
TGI [53]: 26.5 µM
GI50 [54]: 0.708 µM
TGI [54]: 23.8 µM
GI50 [55]: 15.9 µM
TGI [55]: > 54.4 µM
GI50 [56]: 5.34 µM
TGI [56]: 16.8 µM
GI50 [57]: 1.75 µM
TGI [57]: > 57.7 µM
GI50 [58]: 2.72 µM
TGI [58]: 13 µM
